Results as given in ChEMBL document CHEMBL1201862, “PubChem BioAssay data set” (2004).
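Briefly, cells in 96-well plates were exposed to five compound concentrations for 48 h, and endpoints were estimated by linear interpolation. The concentration for 50% growth inhibition is given as GI50.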 The source made the active and inactive calls. Rule as the data show it: active = GI50 up to about 1.1 µM and inactive = higher.

Experiments:
Test in all cases: growth of human tumour cells (NCI), 48 h
SNB-75 = test system: SNB-75
OVCAR-8 = test system: OVCAR-8
HOP-92 = test system: HOP-92
RXF 393 = test system: RXF 393
HT-29 = test system: HT-29
HOP-62 = test system: HOP-62
OVCAR-3 = test system: OVCAR-3
SF-268 = test system: SF-268
MCF7 = test system: MCF7
IGROV-1 = test system: IGROV-1
TK-10 = test system: TK-10
SF-295 = test system: SF-295
DU-145 = test system: DU-145
HCT-15 = test system: HCT-15
LOX IMVI = test system: LOX IMVI
NCI-H460 = test system: NCI-H460
EKVX = test system: EKVX
NCI-H226 = test system: NCI-H226
CCRF-CEM = test system: CCRF-CEM
A498 = test system: A498

SMILES | GI50 (SNB-75) | GI50 (OVCAR-8) | GI50 (HOP-92) | GI50 (RXF 393) | GI50 (HT-29) | GI50 (HOP-62) | GI50 (OVCAR-3) | GI50 (SF-268) | GI50 (MCF7) | GI50 (IGROV-1) | GI50 (TK-10) | GI50 (SF-295) | GI50 (DU-145) | GI50 (HCT-15) | GI50 (LOX IMVI) | GI50 (NCI-H460) | GI50 (EKVX) | GI50 (NCI-H226) | GI50 (CCRF-CEM) | GI50 (A498)
c1ccc(CCCNc2nnnc3ccccc23)cc1 | > 100 µM (inactive) | > 100 µM (inactive) | > 100 µM (inactive) | 43.4 µM (inactive) | > 100 µM (inactive) | > 100 µM (inactive) | > 100 µM (inactive) | > 100 µM (inactive) | 46 µM (inactive) | > 100 µM (inactive) | > 100 µM (inactive) | 44.2 µM (inactive) | > 100 µM (inactive) | > 100 µM | 99.5 µM (inactive) | > 100 µM (inactive) | 70.1 µM (inactive) | > 100 µM (inactive) | 73.8 µM (inactive) | > 100 µM (inactive)
COc1ccc(C(=O)NCCN(C)C)c2nc3ccccc3cc12 | 4.68 µM (inactive) | 0.655 µM (active) | 1.32 µM (inactive) | 2.15 µM (inactive) | 0.596 µM (active) | 0.353 µM (active) | 2 µM (inactive) | 1.58 µM (inactive) | 0.401 µM (active) | 1.32 µM (inactive) | 1.72 µM (inactive) | 0.653 µM (active) | 0.753 µM (active) | 1.35 µM | 0.279 µM (active) | 0.0255 µM (active) | 1.66 µM (inactive) | 0.785 µM (active) | 0.208 µM (active) | 0.114 µM (active)
CC(NC(=O)C(NC(=O)CNC(=O)OC(C)(C)C)C(C)C)C(=O)Oc1c(Cl)c(Cl)c(Cl)c(Cl)c1Cl (stereo not given) | 28 µM (inactive) | 19.4 µM (inactive) | 16.3 µM (inactive) | 17.5 µM (inactive) | 26.4 µM (inactive) | 18.4 µM (inactive) | 13.2 µM (inactive) | 23 µM (inactive) | 25.5 µM (inactive) | 20.3 µM (inactive) | 26.8 µM (inactive) | 14.5 µM (inactive) | 20.5 µM (inactive) | 17.5 µM | 15.5 µM (inactive) | 18.6 µM (inactive) | 27.4 µM (inactive) | 19.8 µM (inactive) | 51.1 µM (inactive) | 21.8 µM (inactive)
COC(=O)C1=C(OC(=O)/C(=C/c2ccc(Cl)cc2)c2ccc(Cl)cc2)C(C(=O)OC)[C@@]2(O)[C@@H](C(=O)OC)[C@H](C)C[C@@H]1[C@@H]2C(=O)OC (stereo not given in full) | > 56 µM (inactive) | 25.1 µM (inactive) | 6.67 µM (inactive) | > 61.4 µM (inactive) | > 61 µM (inactive) | > 100 µM (inactive) | > 45.8 µM (inactive) | 35 µM (inactive) | 58.6 µM (inactive) | 27.6 µM (inactive) | > 100 µM (inactive) | 3.22 µM (inactive) | > 100 µM (inactive) | > 81.3 µM | > 100 µM (inactive) | 14.3 µM (inactive) | 10.6 µM (inactive) | > 100 µM (inactive) | > 37.2 µM (inactive) | > 100 µM (inactive)
CCCCNc1nc2ccccc2c2c1ncn2CC(C)C | > 100 µM (inactive) | > 100 µM (inactive) | > 100 µM (inactive) | > 100 µM (inactive) | > 100 µM (inactive) | > 100 µM (inactive) | > 100 µM (inactive) | > 100 µM (inactive) | > 100 µM (inactive) | > 100 µM (inactive) | > 100 µM (inactive) | > 100 µM (inactive) | > 100 µM (inactive) | > 100 µM | > 100 µM (inactive) | > 100 µM (inactive) | > 100 µM (inactive) | > 100 µM (inactive) | > 100 µM (inactive) | > 100 µM (inactive)
C/C(=N\N)C(CN1CCCCC1)C(c1ccccc1)c1c(O)c2ccccc2oc1=O (stereo not given) | 32.7 µM (inactive) | > 100 µM (inactive) | 67 µM (inactive) | > 54.1 µM (inactive) | > 100 µM (inactive) | > 100 µM (inactive) | > 100 µM (inactive) | > 100 µM (inactive) | > 100 µM (inactive) | > 100 µM (inactive) | > 100 µM (inactive) | > 100 µM (inactive) | > 100 µM (inactive) | > 100 µM | 25.7 µM (inactive) | > 100 µM (inactive) | > 100 µM (inactive) | > 100 µM (inactive) | > 100 µM (inactive) | > 100 µM (inactive)
O=c1c(F)cn(Cc2c(Cl)cccc2Cl)c(=O)n1Cc1c(Cl)cccc1Cl | 16.5 µM (inactive) | > 31.6 µM (inactive) | 20.3 µM (inactive) | 19.7 µM (inactive) | 18.3 µM (inactive) | > 31.6 µM (inactive) | > 31.6 µM (inactive) | > 31.6 µM (inactive) | 24.5 µM (inactive) | > 31.6 µM (inactive) | > 31.6 µM (inactive) | > 31.6 µM (inactive) | > 100 µM (inactive) | > 31.6 µM | > 31.6 µM (inactive) | > 31.6 µM (inactive) | 21.4 µM (inactive) | > 71.6 µM (inactive) | 27 µM (inactive) | > 31.6 µM (inactive)
C[C@]1(O)CC(=O)c2c(c(-c3ccc4cc5c(c(O)c4c3O)C(=O)C[C@@](C)(O)C5)c3cccc(O)c3c2O)C1 | 7.59 µM (inactive) | 5.02 µM (inactive) | 2.58 µM (inactive) | 4.58 µM (inactive) | 5.71 µM (inactive) | 3.48 µM (inactive) | 3.71 µM (inactive) | 4.31 µM (inactive) | 5.53 µM (inactive) | 4.67 µM (inactive) | 6.82 µM (inactive) | 4.86 µM (inactive) | 5.53 µM (inactive) | 3.76 µM | 6.37 µM (inactive) | 3.24 µM (inactive) | 11.2 µM (inactive) | 3.85 µM (inactive) | 6.71 µM (inactive) | 5.42 µM (inactive)
[N-]=[N+]=Nc1c(Cl)c(Cl)nc2ccccc12 | 44.8 µM (inactive) | > 100 µM (inactive) | 35.3 µM (inactive) | 88.5 µM (inactive) | > 100 µM (inactive) | > 100 µM (inactive) | 34.5 µM (inactive) | > 100 µM (inactive) | 54.5 µM (inactive) | 77.6 µM (inactive) | 95.9 µM (inactive) | 82.8 µM (inactive) | 72.1 µM (inactive) | > 100 µM | 62.1 µM (inactive) | > 100 µM (inactive) | 92.7 µM (inactive) | 66.7 µM (inactive) | 54.5 µM (inactive) | 81.5 µM (inactive)
Cc1cc(N(CCC#N)CCC#N)ccc1/C=C(\NC(=O)/C=C/c1ccccc1)C(=O)NN | 24.7 µM (inactive) | > 54.1 µM (inactive) | 20.3 µM (inactive) | > 57.3 µM (inactive) | > 100 µM (inactive) | 37.1 µM (inactive) | > 100 µM (inactive) | > 53.2 µM (inactive) | 95.1 µM (inactive) | > 75.3 µM (inactive) | > 51.3 µM (inactive) | 40 µM (inactive) | > 100 µM (inactive) | > 100 µM | > 100 µM (inactive) | > 66.8 µM (inactive) | > 73.3 µM (inactive) | > 55.6 µM (inactive) | > 100 µM (inactive) | > 100 µM (inactive)
NC(CSC(=O)c1ccccc1)C(=O)O (stereo not given) | > 100 µM (inactive) | > 100 µM (inactive) | > 100 µM (inactive) | > 100 µM (inactive) | > 100 µM (inactive) | > 100 µM (inactive) | > 100 µM (inactive) | > 100 µM (inactive) | > 100 µM (inactive) | > 100 µM (inactive) | > 100 µM (inactive) | > 100 µM (inactive) | > 100 µM (inactive) | > 100 µM | > 100 µM (inactive) | > 100 µM (inactive) | > 100 µM (inactive) | > 100 µM (inactive) | > 100 µM (inactive) | > 100 µM (inactive)
COc1ccc2oc(S(=O)(=O)N3CC(CCl)c4ccc([N+](=O)[O-])cc43)cc2c1 (stereo not given) | 0.0933 µM (active) | 0.22 µM (active) | 0.533 µM (active) | 0.0345 µM (active) | 0.146 µM (active) | 0.0381 µM (active) | 0.108 µM (active) | 0.299 µM (active) | 0.0401 µM (active) | 0.0815 µM (active) | 15.1 µM (inactive) | 0.0374 µM (active) | 0.0883 µM (active) | 0.0703 µM | 0.155 µM (active) | 0.102 µM (active) | 0.173 µM (active) | 0.127 µM (active) | 0.45 µM (active) | 0.0746 µM (active)
O=C(Oc1ccccn1)c1cc2cc(CCl)ccc2oc1=O | 24.8 µM (inactive) | 35.6 µM (inactive) | 20.7 µM (inactive) | 19 µM (inactive) | 76.7 µM (inactive) | 23.7 µM (inactive) | 19.4 µM (inactive) | 20.3 µM (inactive) | 38.5 µM (inactive) | > 100 µM (inactive) | 72.1 µM (inactive) | 68.1 µM (inactive) | 42.8 µM (inactive) | 39.4 µM | 33.3 µM (inactive) | 43.7 µM (inactive) | 36.8 µM (inactive) | 71.1 µM (inactive) | 30.4 µM (inactive) | 70.6 µM (inactive)
O=C1C=CC(=O)N1c1ccc(I)cc1 | 21.8 µM (inactive) | 31.6 µM (inactive) | 21.3 µM (inactive) | 17.9 µM (inactive) | 18.9 µM (inactive) | 15.7 µM (inactive) | 20.8 µM (inactive) | 27 µM (inactive) | 17.4 µM (inactive) | 24.9 µM (inactive) | 16.4 µM (inactive) | 20.5 µM (inactive) | 19.2 µM (inactive) | 11.5 µM | 19.9 µM (inactive) | 33.5 µM (inactive) | 23.3 µM (inactive) | 22.9 µM (inactive) | 3.1 µM (inactive) | 20.2 µM (inactive)
